Experimental data as given in patent publication US9821004B2, “Inhibition of a lncRNA for treatment of melanoma” (VIB VZW, priority 2013, dated 2017).

Assays:
[1] = test system: BRAFV600E-positive melanomas; settings: patients with BRAFV600E-positive melanomas; cited from earlier work
[2] = test system: BRAFV600E human melanoma cell line; test: Apoptosis (Annexin-5-positive cells by FACS) after gapmer transfection plus BRAFV600E-inhibitor; assay type: cell-based; settings: gapmer 3 transfection; 24 hours after exposure to the BRAFV600E-inhibitor, 48 hours after transfection, FIG. 16
Protocol: Apoptosis was measured by quantification of Annexin-5-positive cells by FACS 24 hours after exposure to the BRAFV600E-inhibitor (and 48 hours after transfection). Representative pictures of the cells are shown.
Importantly, knock-down of LINC01212 sensitizes BRAFV600E-melanoma cells to a BRAF-inhibitor currently used in the clinic, […] (FIG. 16).

With `CCCS(=O)(=O)Nc1ccc(F)c(C(=O)c2c[nH]c3ncc(-c4ccc(Cl)cc4)cc23)c1F` [PLX4032] as the compound, how does the anti-tumor response rate [1] read?
Its anti-tumor response rate is 80%.

What about the “sensitization of BRAFV600E-melanoma cells to BRAF-inhibitor by LINC01212 knock-down (apoptosis)” value [2] of the same compound?
Its value is “sensitizes”.
